# From US8389563B2, “C-substituted diindolylmethane compositions and methods for the treatment of multiple cancers” (The Texas A&M University System, priority 2000, dated 2013)
# “Also recorded” adds a separate entry of the source. Read-outs that look alike come from different tables or passages of the source. Marks after values point to notes of the source that are not given here.
# How the values were obtained:
# Ah receptor = biological target: T1, Ah receptor (Rattus norvegicus, UniProt P41738); test: Ah receptor competitive binding
# T1 sequence (P41738 10-853): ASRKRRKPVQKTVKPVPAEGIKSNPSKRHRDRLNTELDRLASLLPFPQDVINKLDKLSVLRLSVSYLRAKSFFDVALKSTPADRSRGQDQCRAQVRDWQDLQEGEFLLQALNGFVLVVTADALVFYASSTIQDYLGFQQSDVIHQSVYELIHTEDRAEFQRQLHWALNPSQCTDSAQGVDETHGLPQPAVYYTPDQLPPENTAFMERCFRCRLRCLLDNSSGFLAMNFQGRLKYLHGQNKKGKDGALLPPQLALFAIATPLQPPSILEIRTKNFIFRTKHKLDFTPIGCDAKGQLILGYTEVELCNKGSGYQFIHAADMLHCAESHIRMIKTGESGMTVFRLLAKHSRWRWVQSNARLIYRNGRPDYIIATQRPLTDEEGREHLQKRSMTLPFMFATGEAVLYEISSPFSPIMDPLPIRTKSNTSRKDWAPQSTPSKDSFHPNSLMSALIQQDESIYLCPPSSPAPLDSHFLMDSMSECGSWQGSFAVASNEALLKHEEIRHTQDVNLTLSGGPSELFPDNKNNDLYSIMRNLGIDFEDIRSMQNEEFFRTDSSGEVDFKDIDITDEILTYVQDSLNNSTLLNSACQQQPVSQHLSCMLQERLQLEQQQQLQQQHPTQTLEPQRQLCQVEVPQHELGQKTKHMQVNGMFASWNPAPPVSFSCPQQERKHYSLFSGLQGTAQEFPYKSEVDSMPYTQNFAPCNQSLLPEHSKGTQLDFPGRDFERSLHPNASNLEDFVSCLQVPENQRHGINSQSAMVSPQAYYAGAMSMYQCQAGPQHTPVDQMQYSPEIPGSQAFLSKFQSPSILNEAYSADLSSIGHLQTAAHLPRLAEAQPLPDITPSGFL
# [1] = system: TCCSUP human bladder cancer cell line; test: Cell proliferation of TCCSUP bladder cancer cells; type: cell-based; settings: for Proliferation of TCCSUP human bladder cancer cells: 0.1-10 μM, cell growth over 4-10 days; for Lowest concentration at which TCCSUP cells were inhibited: lowest concentration tested
# Method: (§1) Initial studies used TCCSUP and J82 human bladder cancer cell lines that were maintained in RPMI culture media supplemented with 10% fetal bovine serum. Cell proliferation studies were carried out in multi-well plates, and compounds (in DMSO, 0.1% vol./vol.) were added and cell growth was determined over a period of 4 10 days. The growth inhibitory properties of DIM and related analogs were determined using the following prototypical compounds: DIM, 5,5′-dimethylDIM (5-Me-DIM), 2,2′-dimethylDIM (2-Me-DIM), and 5,5′-dichloroDIM (5-Cl-DIM) at concentrations from 0.1 10 μM.
# as §1, with “Initial studies on the possible protective role for DIM compounds in bladder cancer used TCCSUP” for “Initial studies used TCCSUP”
# [2] = system: J82 human bladder cancer cell line; test: Cell proliferation of J82 bladder cancer cells; type: cell-based; settings: 0.1-10 μM, cell growth over 4-10 days
# Method: as §1
# as §1, with “Initial studies on the possible protective role for DIM compounds in bladder cancer used TCCSUP” for “Initial studies used TCCSUP”
# [3] = system: HT-29 human colon cancer cells; test: Cell proliferation and apoptosis of HT-29 colon cancer cells; type: cell-based
# Method: (§2) Studies with HT-29 human colon cancer cells also indicate that DIM and related analogs protect against colon cancer. HT-29 cells were grown in DMEM and serum and treated with 25 μM DIM and 4,4′-dichloroDIM. After 72 hr, there was a 73 and 92% decrease in cell proliferation, respectively, and these antiproliferative effects could be observed with cell concentrations as low as 10 μM.
# as §2, with “Preliminary studies” for “Studies”, “hours,” for “hr,”, “with” for “with cell”
# [4] = system: mitogen-activated protein kinase (MAPKK); test: MAPKK-induced pSRE reporter activity in MCF-7 cells; type: cell-based; settings: 1 or 5 μM, MCF-7 cells transfected with pMAPKK and pSRE
# Source text: Therefore, we have been investigating the inhibitory effects of DIMs on kinase activities and our initial studies have examined inhibition of mitogen-activated protein kinase (MAPKK) which regulates expression of multiple genes involved in cell proliferation. MCF-7 cells are transfected with a constitutively active MAPKK expression plasmid (pMAPKK), and induction of activity is monitored through activation of the construct pSRE which contains a MAPKK-inducible serum response element (SRE) from the cfos protooncogene (Duan et al., “Estrogen receptor-mediated activation of the serum response element in MCF-7 cells through MAPK-dependent phosphorylation of Elk-1” J. Biol. Chem. 276:11590 11598, 2001).
# [5] = system: T47D human breast cancer cells; test: Estrogenic and antiestrogenic activity in T47D cells (proliferation, alone or with 1 nM E2); type: cell-based; settings: in combination with 1 nM E2
# Source text: In a separate study, it was also shown that the same compounds and other C-substituted DIMs were also antiestrogenic in T47D cells, and these include the C-p-phenol and C-p-anisole compounds in which R1═CH3 (methyl) (i.e., NMe-CPh-OHDIM and NMe-CPh-MeODIM, respectively) (FIG. 3).
# [6] = system: DMBA-induced mammary tumor; test: DMBA-induced rat mammary tumor model; type: in vivo, female Sprague-Dawley rats; settings: 1.0 mg/kg every 2 days; for Mammary tumor growth in DMBA-induced rats: tumor volumes over 21 days
# [7] = system: MCF-7 human breast cancer cells; test: Proliferation of MCF-7 breast cancer cells, alone or with 1 nM E2; type: cell-based; settings: for E2-induced MCF-7 cell proliferation: co-treated with 1 nM E2; for Growth of MCF-7 cells, compound alone: up to 10 μM
# [8] = Body/organ weights, EROD and histopathology in the DMBA-induced rat study; type: in vivo, female Sprague-Dawley rats; settings: 1.0 mg/kg every 2 days
smiles,measurement,setting,value
Cn1cc(C(c2ccc(Cl)cc2)c2cn(C)c3ccccc23)c2ccccc21,IC50,Ah receptor,0.55 nM
"Cc1[nH]c2ccccc2c1Cc1c(C)[nH]c2ccccc12 [2,2′-dimethylDIM, 2,2′-dimethyl-diindolylmethane]",Proliferation of TCCSUP human bladder cancer cells,[1],significantly inhibited
same,Lowest concentration at which TCCSUP cells were inhibited,[1],0.1 µM
same,Proliferation of J82 human bladder cancer cells,[2],significantly inhibited
"Clc1cccc2[nH]cc(Cc3c[nH]c4cccc(Cl)c34)c12 [4,4′-dichloroDIM]",Lowest concentration at which antiproliferative effects could be observed in HT-29 cells,[3],10 µM
same,Programmed cell death accompanying growth inhibition in HT-29 cells,[3],"programmed cell death, or apoptosis; also recorded: programmed cell death or apoptosis"
same,Decrease in HT-29 cell proliferation,"[3]; 25 μM, after 72 hr",92%
"Clc1ccc2[nH]cc(Cc3c[nH]c4ccc(Cl)cc34)c2c1 [5,5′-dichloroDIM, 5,5′-dichloro-diindolylmethane]",Proliferation of TCCSUP human bladder cancer cells,[1],significantly inhibited
same,Lowest concentration at which TCCSUP cells were inhibited,[1],0.1 µM
same,Proliferation of J82 human bladder cancer cells,[2],significantly inhibited
"Cc1ccc2[nH]cc(Cc3c[nH]c4ccc(C)cc34)c2c1 [5,5′-dimethylDIM, 5,5′-dimethyl-diindolylmethane]",Proliferation of TCCSUP human bladder cancer cells,[1],significantly inhibited
same,Lowest concentration at which TCCSUP cells were inhibited,[1],0.1 µM
same,Proliferation of J82 human bladder cancer cells,[2],significantly inhibited
same,MAPKK-induced (pSRE) activity,[4],inhibited MAPKK-induced activity
"Cc1ccc2c(Cc3c[nH]c4cc(C)ccc34)c[nH]c2c1 [6,6′-dimethlyDIM]",MAPKK-induced (pSRE) activity,[4],inhibited MAPKK-induced activity
c1ccc(C(c2c[nH]c3ccccc23)c2c[nH]c3ccccc23)cc1 [C-PhDIM],Antiestrogenic activity in T47D cells,[5],antiestrogenic
same,Tumor volume,[6],1025 +/− 245* mm3
same,Tumor weight,[6],1.40 +/− 0.4* g
same,Mammary tumor growth in DMBA-induced rats,[6],potent inhibition of mammary tumor growth
same,Mammary tumor growth in DMBA-induced rats,[6]; listed as C-phenylDIM,potent inhibition of mammary tumor growth
same,Mammary tumor growth in DMBA-induced rats,[6]; listed as C—PhDIM,Illustrates inhibition of DMBA-induced mammary tumor growth in female Sprague-
same,E2-induced MCF-7 cell proliferation,[7]; listed as C-phenylDIM,hormone-induced proliferative response was inhibited
same,E2-induced MCF-7 cell proliferation,[7]; listed as C—C6H5,significant inhibition of E2-induced cell proliferation
same,"Growth of MCF-7 cells, compound alone",[7]; listed as C-phenylDIM,did not induce breast cancer cell proliferation
same,"Growth of MCF-7 cells, compound alone",[7]; listed as C—C6H5,do not affect growth
same,Changes in body/organ weights or tissue histopathology,[8],not accompanied by changes in body/organ weights or altered tissue histopathology
same,EROD,[8],309 ± 102 pmol/mg/min
same,Heart,[8],0.38 +/− 0.03 % body weight
same,Kidney,[8],0.33 +/− 0.01 % body weight
same,Liver,[8],3.2 +/− 0.1 % body weight
same,Spleen,[8],0.33 +/− 0.05 % body weight
same,Uterus,[8],0.19 +/− 0.02 % body weight
same,Changes in body/organ weights or tissue histopathology,[8]; listed as C-phenylDIM,not accompanied by changes in body/organ weights on altered tissue histopathology
same,IC50,Ah receptor,98 nM
CC(c1c[nH]c2ccccc12)c1c[nH]c2ccccc12 [C-methylDIM],Antiestrogenic activity in T47D cells,[5],antiestrogenic
same,E2-induced MCF-7 cell proliferation,[7],hormone-induced proliferative response was inhibited
same,E2-induced MCF-7 cell proliferation,[7]; listed as C—CH3,significant inhibition of E2-induced cell proliferation
same,"Growth of MCF-7 cells, compound alone",[7],did not induce breast cancer cell proliferation
same,"Growth of MCF-7 cells, compound alone",[7]; listed as C—CH3,do not affect growth
same,IC50,Ah receptor,11 nM
FC(F)(F)c1ccc(C(c2c[nH]c3ccccc23)c2c[nH]c3ccccc23)cc1 [C—Ph—CF3DIM],Mammary tumor growth in DMBA-induced rats,[6],Illustrates inhibition of DMBA-induced mammary tumor growth in female and C—Ph—CF3DIM
Cn1cc(C(c2ccc(-c3ccccc3)cc2)c2cn(C)c3ccccc23)c2ccccc21 [NMe-C-BiphDIM],Mammary tumor growth in DMBA-induced rats,[6],Illustrates inhibition of DMBA-induced mammary tumor growth in female Sprague-
same,IC50,"Ah receptor; read-out: IC50 competitive binding values, Ah receptor",1.8 nM
Cn1cc(C(c2ccc(C(F)(F)F)cc2)c2cn(C)c3ccccc23)c2ccccc21 [NMe-C-Ph-CF3DIM],Mammary tumor growth in DMBA-induced rats,[6],Illustrates inhibition of DMBA-induced mammary tumor growth in female Sprague-
COc1ccc(C(c2cn(C)c3ccccc23)c2cn(C)c3ccccc23)cc1 [NMe-C-Ph-MeODIM],Antiestrogenic activity in T47D cells,[5],antiestrogenic
same,Mammary tumor growth in DMBA-induced rats,[6],Illustrates inhibition of DMBA-induced mammary tumor growth in female Sprague-
Cn1cc(C(c2ccccc2)c2cn(C)c3ccccc23)c2ccccc21 [NMe-C-PhDIM],Mammary tumor growth in DMBA-induced rats,[6],Illustrates inhibition of DMBA-induced mammary tumor growth in female Sprague-
Cc1ccc(C(c2cn(C)c3ccccc23)c2cn(C)c3ccccc23)cc1 [NMe-C-PhMeDIM],Mammary tumor growth in DMBA-induced rats,[6],Illustrates inhibition of DMBA-induced mammary tumor growth in female Sprague-
Cn1cc(C(c2ccc(O)cc2)c2cn(C)c3ccccc23)c2ccccc21 [NMe-C-PhOHDIM],Antiestrogenic activity in T47D cells,[5],antiestrogenic
same,Mammary tumor growth in DMBA-induced rats,[6],Illustrates inhibition of DMBA-induced mammary tumor growth in female Sprague-
